Measurements from ChEMBL document CHEMBL5126595, “Identification and anti-tumor evaluation of 3-acyl-indol-based 2,4-diarylaminopyrimidine analogues as potent ALK inhibitors capable of overcoming drug-resistant mutants” (Eur J Med Chem, 2022).
pIC50: −log10 of the molar value. Calls of active or inactive are those of the source. The calls are words filed in the database; no cut-off is given here.

Tests used:
[1] = molecular target: Epidermal growth factor receptor (Homo sapiens, UniProt P00533); experiment: Inhibition of human EGFR (669 to 1210 residues) cytoplasmic domain expressed in baculovirus infected Sf21 cells incubated for 1 hrs in the presence of ATP by mobility shift assay
Sequence of Epidermal growth factor receptor (P00533 whole entry, the tested form may be a part): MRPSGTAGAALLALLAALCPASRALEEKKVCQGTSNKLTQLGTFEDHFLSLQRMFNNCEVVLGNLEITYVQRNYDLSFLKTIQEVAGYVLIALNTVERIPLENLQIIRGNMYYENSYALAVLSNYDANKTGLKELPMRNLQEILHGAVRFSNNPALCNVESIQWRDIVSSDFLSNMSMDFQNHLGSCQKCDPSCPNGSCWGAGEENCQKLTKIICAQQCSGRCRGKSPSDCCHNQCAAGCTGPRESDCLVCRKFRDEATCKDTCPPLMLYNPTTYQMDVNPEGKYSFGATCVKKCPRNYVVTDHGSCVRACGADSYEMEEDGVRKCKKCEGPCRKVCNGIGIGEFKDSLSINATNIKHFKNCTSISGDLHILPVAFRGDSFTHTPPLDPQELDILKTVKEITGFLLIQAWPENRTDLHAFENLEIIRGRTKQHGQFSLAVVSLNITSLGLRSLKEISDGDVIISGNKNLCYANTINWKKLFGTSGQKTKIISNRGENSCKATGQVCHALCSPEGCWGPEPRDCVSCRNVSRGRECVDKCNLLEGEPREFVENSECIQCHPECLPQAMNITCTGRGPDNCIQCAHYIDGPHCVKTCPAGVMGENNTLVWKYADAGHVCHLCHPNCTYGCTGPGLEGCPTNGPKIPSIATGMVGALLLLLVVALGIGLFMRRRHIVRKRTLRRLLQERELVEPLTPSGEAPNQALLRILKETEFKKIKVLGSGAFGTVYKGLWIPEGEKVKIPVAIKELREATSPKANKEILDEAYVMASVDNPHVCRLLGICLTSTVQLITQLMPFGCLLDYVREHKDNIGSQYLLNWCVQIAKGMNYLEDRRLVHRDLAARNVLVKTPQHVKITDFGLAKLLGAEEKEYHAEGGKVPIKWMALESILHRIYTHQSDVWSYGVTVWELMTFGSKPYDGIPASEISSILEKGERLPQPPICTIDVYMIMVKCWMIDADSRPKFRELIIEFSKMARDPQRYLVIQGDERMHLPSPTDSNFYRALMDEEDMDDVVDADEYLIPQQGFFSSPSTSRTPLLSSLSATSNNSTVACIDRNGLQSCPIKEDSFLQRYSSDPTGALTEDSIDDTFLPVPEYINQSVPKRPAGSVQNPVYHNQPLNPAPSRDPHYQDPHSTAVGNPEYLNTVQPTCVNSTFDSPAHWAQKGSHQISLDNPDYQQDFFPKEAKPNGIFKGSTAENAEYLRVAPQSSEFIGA

NCI-H2228 [2] = experiment: Induction of apoptosis in human NCI-H2228 cells assessed as necrotic cells at 50 nM incubated for 48 hrs by AnnexinV-FITC/propidium iodide staining based flow cytometry analysis (reference value: 0.55 %); assay type: functional
KARPAS-299 = experiment: Antiproliferative activity against NPM-ALK positive human KARPAS-299 cells assessed as inhibition of cell growth incubated for 72 hrs by MTT assay; assay type: functional, cell-based; conditions: KARPAS-299, 72 h
NCI-H2228 [3] = experiment: Antiproliferative activity against EML4-ALK positive human NCI-H2228 cells assessed as inhibition of cell growth incubated for 72 hrs by MTT assay; assay type: functional, cell-based; conditions: NCI-H2228, 72 h
[4] = molecular target: T1, ALK tyrosine kinase receptor (Homo sapiens, UniProt Q9UM73); experiment: Inhibition of N-terminal GST-tagged human wild type ALK (1058 to 1620 residues) cytoplasmic domain expressed in baculovirus infected Sf21 cells incubated for 1 hrs in the presence of ATP by mobility shift assay
Target sequence in this assay (Q9UM73 whole entry, the tested form may be a part): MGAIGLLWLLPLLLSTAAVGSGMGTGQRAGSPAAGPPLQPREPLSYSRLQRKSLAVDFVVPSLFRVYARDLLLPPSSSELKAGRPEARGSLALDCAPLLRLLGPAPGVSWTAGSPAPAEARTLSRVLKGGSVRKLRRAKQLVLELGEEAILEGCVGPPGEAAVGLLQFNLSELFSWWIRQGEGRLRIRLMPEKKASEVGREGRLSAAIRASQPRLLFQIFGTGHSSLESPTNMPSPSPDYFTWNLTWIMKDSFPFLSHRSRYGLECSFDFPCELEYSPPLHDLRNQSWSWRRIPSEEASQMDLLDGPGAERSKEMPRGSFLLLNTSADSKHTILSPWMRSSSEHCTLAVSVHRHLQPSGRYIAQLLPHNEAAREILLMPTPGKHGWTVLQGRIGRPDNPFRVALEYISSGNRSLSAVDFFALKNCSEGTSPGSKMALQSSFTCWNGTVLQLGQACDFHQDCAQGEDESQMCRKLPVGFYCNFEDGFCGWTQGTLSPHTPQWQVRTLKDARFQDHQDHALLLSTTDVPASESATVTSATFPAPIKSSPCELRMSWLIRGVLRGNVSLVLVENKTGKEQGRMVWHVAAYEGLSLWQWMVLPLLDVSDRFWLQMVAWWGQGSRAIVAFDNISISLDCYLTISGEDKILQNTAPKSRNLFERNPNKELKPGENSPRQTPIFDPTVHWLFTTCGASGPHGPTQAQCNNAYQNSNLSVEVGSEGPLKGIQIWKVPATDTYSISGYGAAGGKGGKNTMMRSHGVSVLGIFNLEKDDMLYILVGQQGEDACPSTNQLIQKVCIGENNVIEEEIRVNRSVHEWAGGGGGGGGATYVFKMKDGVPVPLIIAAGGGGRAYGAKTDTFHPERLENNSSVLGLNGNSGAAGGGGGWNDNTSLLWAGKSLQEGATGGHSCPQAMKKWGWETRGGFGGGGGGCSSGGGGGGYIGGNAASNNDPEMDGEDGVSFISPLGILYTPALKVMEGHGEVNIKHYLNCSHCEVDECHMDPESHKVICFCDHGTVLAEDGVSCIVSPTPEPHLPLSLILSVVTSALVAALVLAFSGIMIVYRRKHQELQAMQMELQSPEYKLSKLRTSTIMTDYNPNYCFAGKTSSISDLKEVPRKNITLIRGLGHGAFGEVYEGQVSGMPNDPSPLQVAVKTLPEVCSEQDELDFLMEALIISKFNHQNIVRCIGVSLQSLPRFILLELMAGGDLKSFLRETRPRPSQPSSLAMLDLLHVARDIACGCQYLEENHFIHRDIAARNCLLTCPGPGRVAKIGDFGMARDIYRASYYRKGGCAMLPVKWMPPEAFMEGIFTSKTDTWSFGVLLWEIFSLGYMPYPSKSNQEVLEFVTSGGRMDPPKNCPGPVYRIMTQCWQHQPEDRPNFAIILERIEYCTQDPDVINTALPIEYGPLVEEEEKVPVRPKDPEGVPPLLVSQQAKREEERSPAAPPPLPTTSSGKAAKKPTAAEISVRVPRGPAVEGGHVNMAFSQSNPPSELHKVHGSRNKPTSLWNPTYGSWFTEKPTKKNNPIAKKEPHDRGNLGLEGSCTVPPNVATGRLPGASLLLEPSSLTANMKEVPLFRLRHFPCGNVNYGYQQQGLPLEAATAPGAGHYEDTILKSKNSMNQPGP

[5] = molecular target: ALK tyrosine kinase receptor (Homo sapiens, UniProt Q9UM73, G1202R); experiment: Inhibition of N-terminal GST-tagged human ceritinib-resistant ALK G1202R mutant (1058 to 1620 residues) cytoplasmic domain expressed in baculovirus infected Sf21 cells incubated for 1 hrs in the presence of ATP by mobility shift assay
Sequence of ALK tyrosine kinase receptor (Homo sapiens, UniProt Q9UM73, G1202R) (Q9UM73 19-1620 G1202R limits assumed): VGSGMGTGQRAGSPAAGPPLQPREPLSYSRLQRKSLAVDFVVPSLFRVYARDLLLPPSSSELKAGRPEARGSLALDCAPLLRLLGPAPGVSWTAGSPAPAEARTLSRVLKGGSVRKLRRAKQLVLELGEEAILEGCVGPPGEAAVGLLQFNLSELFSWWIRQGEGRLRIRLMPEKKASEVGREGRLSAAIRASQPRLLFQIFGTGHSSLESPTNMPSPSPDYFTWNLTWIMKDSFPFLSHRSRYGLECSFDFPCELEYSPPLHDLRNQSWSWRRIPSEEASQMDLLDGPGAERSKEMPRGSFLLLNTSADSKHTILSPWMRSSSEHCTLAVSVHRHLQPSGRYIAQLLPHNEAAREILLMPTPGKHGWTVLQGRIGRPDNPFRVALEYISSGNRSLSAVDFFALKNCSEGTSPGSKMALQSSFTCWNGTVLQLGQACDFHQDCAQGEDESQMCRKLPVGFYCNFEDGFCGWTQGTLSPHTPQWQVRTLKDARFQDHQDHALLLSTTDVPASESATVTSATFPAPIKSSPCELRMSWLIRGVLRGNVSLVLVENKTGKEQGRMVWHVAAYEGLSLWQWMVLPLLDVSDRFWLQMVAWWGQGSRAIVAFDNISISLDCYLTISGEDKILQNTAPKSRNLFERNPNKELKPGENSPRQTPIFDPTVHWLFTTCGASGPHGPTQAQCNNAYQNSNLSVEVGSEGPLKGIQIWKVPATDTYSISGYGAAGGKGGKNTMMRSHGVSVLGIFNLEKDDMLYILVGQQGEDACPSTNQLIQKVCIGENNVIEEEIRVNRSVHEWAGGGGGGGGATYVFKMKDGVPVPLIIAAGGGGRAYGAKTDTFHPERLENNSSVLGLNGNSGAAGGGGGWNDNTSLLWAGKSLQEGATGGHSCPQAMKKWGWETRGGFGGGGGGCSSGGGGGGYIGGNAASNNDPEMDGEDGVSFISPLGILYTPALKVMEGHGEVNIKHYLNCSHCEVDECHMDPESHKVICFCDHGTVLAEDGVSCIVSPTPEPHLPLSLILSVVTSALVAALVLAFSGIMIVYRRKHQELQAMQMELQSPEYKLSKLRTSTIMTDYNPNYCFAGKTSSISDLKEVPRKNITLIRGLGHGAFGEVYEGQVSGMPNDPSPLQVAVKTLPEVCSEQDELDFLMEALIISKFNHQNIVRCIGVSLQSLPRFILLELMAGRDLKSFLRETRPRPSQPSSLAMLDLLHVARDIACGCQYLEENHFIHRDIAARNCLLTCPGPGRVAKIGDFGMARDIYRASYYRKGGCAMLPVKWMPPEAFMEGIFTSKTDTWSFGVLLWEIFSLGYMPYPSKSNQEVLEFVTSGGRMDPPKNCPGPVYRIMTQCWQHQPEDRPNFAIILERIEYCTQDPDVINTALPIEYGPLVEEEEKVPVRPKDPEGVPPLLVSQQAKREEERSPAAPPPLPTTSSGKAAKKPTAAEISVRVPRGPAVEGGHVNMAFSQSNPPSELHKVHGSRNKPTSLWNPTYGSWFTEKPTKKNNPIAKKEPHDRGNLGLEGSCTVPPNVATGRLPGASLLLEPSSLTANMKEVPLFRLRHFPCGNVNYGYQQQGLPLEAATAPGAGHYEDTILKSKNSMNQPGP

[6] = Antiproliferative activity […] EML4-ALK-L1196M cells assessed as inhibition of cell growth incubated for 72 hrs by MTT assay; assay type: functional, cell-based
NCI-H3122 = experiment: Antiproliferative activity against EML4-ALK positive human NC-H3122 cells assessed as inhibition of cell growth incubated for 72 hrs by MTT assay; assay type: functional, cell-based; conditions: NCI-H3122, 72 h
[7] = Antiproliferative activity against human HEK293T cells assessed as inhibition of cell growth incubated for 72 hrs by MTT assay; assay type: toxicity, cell-based, HEK-293T
[8] = molecular target: T1, ALK tyrosine kinase receptor; experiment: Inhibition of ALK downstream signalling in human NCI-H2228 cells assessed as reduction in AKT level measured after 24 hrs by Western blot analysis; assay type: cell-based; conditions: dose 25-100 nM, DDE = dose-dependent effect
Target sequence in this assay (Q9UM73 19-1620 limits assumed): as the sequence (Q9UM73 19-1620 G1202R limits assumed) above, with R1184G counted along it

[9] = molecular target: T1, ALK tyrosine kinase receptor; experiment: Inhibition of ALK downstream signalling in human NCI-H2228 cells assessed as reduction in ERK level measured after 24 hrs by Western blot analysis; assay type: cell-based; conditions: dose 25-100 nM, DDE = dose-dependent effect
Target sequence in this assay (Q9UM73 19-1620 limits assumed): as the sequence (Q9UM73 19-1620 G1202R limits assumed) above, with R1184G counted along it

NCI-H2228 [10] = experiment: Inhibition of colony formation in human NCI-H2228 cells assessed as reduction in colony area at 100 nM incubated for 3 day by crystal violet staining based assay; assay type: functional; conditions: NCI-H2228, 72 h
NCI-H2228 [11] = experiment: Inhibition of cell migration in human NCI-H2228 cells at 10 nM measured at 24 hrs by inverted microscopic based cell scratch assay relative to control; assay type: functional
NCI-H2228 [12] = experiment: Inhibition of cell migration in human NCI-H2228 cells at 10 nM measured at 48 hrs by inverted microscopic based cell scratch assay relative to control; assay type: functional
NCI-H2228 [13] = experiment: Induction of apoptosis in human NCI-H2228 cells assessed as nuclei fragmentation by measuring brilliant blue fluorescence at 25 to 100 nM incubated for 48 hrs by Hoechst 33342 staining based fluorescence microscopic analysis; assay type: functional, cell-based; conditions: dose 25-100 nM
NCI-H2228 [14] = experiment: Induction of apoptosis in human NCI-H2228 cells assessed as solidified nuclei at 25 to 100 nM incubated for 48 hrs by Hoechst 33342 staining based fluorescence microscopic analysis; assay type: functional, cell-based; conditions: dose 25-100 nM
NCI-H2228 [15] = experiment: Induction of apoptosis in human NCI-H2228 cells assessed as viable cells at 50 nM incubated for 48 hrs by AnnexinV-FITC/propidium iodide staining based flow cytometry analysis (reference value: 92.3 %); assay type: functional; conditions: read-out: Activity
NCI-H2228 [16] = experiment: Induction of apoptosis in human NCI-H2228 cells assessed as early apoptotic cells at 50 nM incubated for 48 hrs by AnnexinV-FITC/propidium iodide staining based flow cytometry analysis (reference value: 2.45 %); assay type: functional
NCI-H2228 [17] = experiment: Induction of apoptosis in human NCI-H2228 cells assessed as viable cells at 25 nM incubated for 48 hrs by AnnexinV-FITC/propidium iodide staining based flow cytometry analysis (reference value: 92.3 %); assay type: functional; conditions: read-out: Activity
NCI-H2228 [18] = experiment: Induction of apoptosis in human NCI-H2228 cells assessed as viable cells at 100 nM incubated for 48 hrs by AnnexinV-FITC/propidium iodide staining based flow cytometry analysis (reference value: 92.3 %); assay type: functional; conditions: read-out: Activity
NCI-H2228 [19] = experiment: Induction of apoptosis in human NCI-H2228 cells assessed as early apoptotic cells at 100 nM incubated for 48 hrs by AnnexinV-FITC/propidium iodide staining based flow cytometry analysis (reference value: 2.45 %); assay type: functional
NCI-H2228 [20] = experiment: Induction of apoptosis in human NCI-H2228 cells assessed as total apoptotic cells at 25 nM incubated for 48 hrs by AnnexinV-FITC/propidium iodide staining based flow cytometry analysis; assay type: functional
NCI-H2228 [21] = experiment: Induction of cell cycle arrest in human NCI-H2228 cells assessed as decrease in G2 phase cells at 25 nM incubated for 48 hrs by PI/RNase staining based flow cytometry analysis (reference value: 15.38 %); assay type: functional; parameters: scale not given: the % may be the effect or the level left
NCI-H2228 [22] = experiment: Induction of cell cycle arrest in human NCI-H2228 cells assessed as decrease in S phase cells at 50 nM incubated for 48 hrs by PI/RNase staining based flow cytometry analysis (reference value: 34.90 %); assay type: functional; parameters: scale not given: the % may be the effect or the level left
NCI-H2228 [23] = experiment: Induction of cell cycle arrest in human NCI-H2228 cells assessed as increase in G1 phase cells at 100 nM incubated for 48 hrs by PI/RNase staining based flow cytometry analysis (reference value: 49.72 %); assay type: functional
NCI-H2228 [24] = experiment: Induction of cell cycle arrest in human NCI-H2228 cells assessed as decrease in S phase cells at 100 nM incubated for 48 hrs by PI/RNase staining based flow cytometry analysis (reference value: 34.90 %); assay type: functional; parameters: scale not given: the % may be the effect or the level left
NCI-H2228 [25] = experiment: Induction of cell cycle arrest in human NCI-H2228 cells assessed as decrease in G2 phase cells at 100 nM incubated for 48 hrs by PI/RNase staining based flow cytometry analysis (reference value: 15.38 %); assay type: functional; parameters: scale not given: the % may be the effect or the level left
[26] = Half-life in Sprague-Dawley rat at 2 mg/kg, iv by LC-MS/MS analysis; assay type: ADME, organism-based; conditions: in vivo
[27] = AUC (0 to t) in Sprague-Dawley rat at 2 mg/kg, iv by LC-MS/MS analysis; assay type: ADME, organism-based; parameters: dose 2 mg/kg, route iv; conditions: in vivo
[28] = AUC (0 to infinity) in Sprague-Dawley rat at 10 mg/kg, po by LC-MS/MS analysis; assay type: ADME, organism-based; parameters: time infinity, dose 10 mg/kg, route po; conditions: in vivo
[29] = Clearance in Sprague-Dawley rat at 2 mg/kg, iv by LC-MS/MS analysis; assay type: ADME, organism-based; conditions: in vivo
[30] = Toxicity in BALB/c nude mouse xenografted with human NCI-H2228 cells assessed as effect on body weight at 25 to 50 mg/kg, IG administered every 2 days for 7 times; assay type: organism-based; conditions: in vivo, po, 48 h, dose 25-50 mg/kg, time 2 day
MCF7 = experiment: cells; conditions: Homo sapiens, MCF7, 72 h
Description: Antiproliferative activity against human MCF7 cells assessed as inhibition of cell growth incubated for 72 hrs by MTT assay

HT-29 = experiment: cells; conditions: Homo sapiens, HT-29, 72 h
Description: Antiproliferative activity against human HT-29 cells assessed as inhibition of cell growth incubated for 72 hrs by MTT assay

SMILES: CNC(=O)c1ccccc1Nc1nc(Nc2ccc3c(C(=O)N(C)C)c(C)[nH]c3c2)ncc1Cl
- pIC50 [1]: < 6.00
- Activity (NCI-H2228 [2]): 1.66%
- pIC50 (KARPAS-299): 7.96
- pIC50 (NCI-H2228 [3]): 7.43
- pIC50 [4]: 8.64
- pIC50 [5]: 8.54
- pIC50 [6]: 7.68
- pIC50 (NCI-H3122): 7.57
- IC50 at 72 h [7]: > 10000 nM
- inhibition [8]: Dde
- inhibition [9]: Dde
- inhibition at 0.1 µM (NCI-H2228 [10]): 100%
- inhibition at 0.01 µM (NCI-H2228 [11]): 3.6%
- inhibition at 0.01 µM (NCI-H2228 [12]): 4.5%
- Activity (NCI-H2228 [13]): Active
- Activity (NCI-H2228 [14]): Active
- viability at 0.05 µM (NCI-H2228 [15]): 74.4%
- Activity (NCI-H2228 [16]): 7.44%
- viability at 0.025 µM (NCI-H2228 [17]): 84.1%
- viability at 0.1 µM (NCI-H2228 [18]): 68.6%
- Activity (NCI-H2228 [19]): 8.7%
- Activity (NCI-H2228 [20]): 14.23%
- Activity (NCI-H2228 [21]): 12.23%
- Activity (NCI-H2228 [22]): 32.28%
- Activity (NCI-H2228 [23]): 58.51%
- Activity (NCI-H2228 [24]): 29.32%
- Activity (NCI-H2228 [25]): 12.18%
- half-life [26]: 2.5 h
- AUC(0-t) [27]: 879 ng·h/mL
- AUC(0-inf) [28]: 1760 ng·h/mL
- clearance [29]: 36.2 mL/min/kg
- Activity [30]: Non-Toxic
- pIC50 (MCF7): 5.67
- pIC50 (HT-29): 5.70
